ChEMBL document CHEMBL2434929, “Thermoresponsive dendrimers based on oligoethylene glycols: design, synthesis and cytotoxic activity against MCF-7 breast cancer cells” (Eur J Med Chem, 2013)
Converted amounts (≈) assume the structure as drawn.

Experiments:
MCF7 [1] = assay: Cytotoxicity against human MCF7 cells assessed as viable cells at 0.1 to 1000 ug/ml after 72 hrs by SRB-U assay; type: functional
MCF7 [2] = assay: Cytotoxicity against human MCF7 cells after 72 hrs by SRB-U assay; type: functional, cell-based; details: MCF7, 72 h

Compound	Activity (MCF7 [1])	IC50 (MCF7 [2])
CCOCCOCCOCCOc1cc(COCCOCCOCCOc2c(Br)c(Br)c(OCCOCCOCCOCc3cc(OCCOCCOCCOCC)c(OCCOCCOCCOCC)c(OCCOCCOCCOCC)c3)c(Br)c2Br)cc(OCCOCCOCCOCC)c1OCCOCCOCCOCC	5.1%	25.4 µg/mL (≈ 13.2 µM)
CCOCCOCCOCCOc1cc(COc2c(Br)c(Br)c(OCc3cc(OCCOCCOCCOCC)c(OCCOCCOCCOCC)c(OCCOCCOCCOCC)c3)c(Br)c2Br)cc(OCCOCCOCCOCC)c1OCCOCCOCCOCC	1.97%	1.07 µg/mL (≈ 0.643 µM)
CCOCCOCCOCCOc1c(Br)c(Br)c(OCCOCCOCCOCC)c(Br)c1Br	11.22%	13.8 µg/mL (≈ 18.5 µM)
